Key:
B cell receptor = assay: whole blood anti-IgD stimulated CD69 on CD19+ B cells; type: cell-based; details: whole blood from four healthy donors, 2 hours compound, anti-human IgD 18 hours
Experimental: Blood from four healthy donors was incubated for 2 hours with the compounds shown over a concentration range, and then stimulated with anti-human IgD [10 μg/mL] for 18 hours. The mean fluorescent intensity (MFI) of CD69 (and CD86, data not shown) on gated CD19+ B cells was measured by flow cytometry.

NSCLC (KrasLA2) tumors = assay: genetic tumor model of NSCLC (KrasLA2); type: in vivo, mice; details: 15 mg/kg
Source text: The model is designed to have sporadic expression in single cells of G12D mutant Kras off its own promoter triggered by spontaneous intrachromosomal recombination. Johnson, et al. Nature 2001, 410, 1111-16. While the mutant Kras protein is expressed in a few cells in all tissues, tumor development is seen only in the lung at high penetrance.

CXCL12 [1] = assay: plasma chemokines in treated CLL patients; type: in vivo, human
BTK [2] = biological target: BTK (Homo sapiens, UniProt Q06187); assay: BTK target occupancy in relapsed/refractory CLL patients; details: at lower dosage versus ibrutinib, FIG. 131
Chain of BTK (Homo sapiens, UniProt Q06187) (Q06187 whole entry): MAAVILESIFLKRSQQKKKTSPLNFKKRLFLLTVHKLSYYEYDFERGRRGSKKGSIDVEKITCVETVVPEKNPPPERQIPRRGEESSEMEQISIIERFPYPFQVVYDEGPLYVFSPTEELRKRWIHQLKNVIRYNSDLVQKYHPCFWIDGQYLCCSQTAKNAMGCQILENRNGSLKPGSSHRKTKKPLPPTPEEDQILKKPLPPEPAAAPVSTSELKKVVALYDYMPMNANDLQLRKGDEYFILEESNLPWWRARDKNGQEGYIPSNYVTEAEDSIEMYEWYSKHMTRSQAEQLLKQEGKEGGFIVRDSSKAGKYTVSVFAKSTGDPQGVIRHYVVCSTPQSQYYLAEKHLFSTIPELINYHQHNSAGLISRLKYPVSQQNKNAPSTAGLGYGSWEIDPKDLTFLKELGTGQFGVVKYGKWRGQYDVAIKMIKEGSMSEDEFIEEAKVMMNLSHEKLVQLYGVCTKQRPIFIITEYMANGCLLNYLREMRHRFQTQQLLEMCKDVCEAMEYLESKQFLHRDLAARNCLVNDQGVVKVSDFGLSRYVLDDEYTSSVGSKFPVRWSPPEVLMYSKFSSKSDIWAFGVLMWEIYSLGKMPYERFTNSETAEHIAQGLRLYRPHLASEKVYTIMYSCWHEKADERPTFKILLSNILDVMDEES

[3] = study of respiratory function; details: rats, doses through 300 mg/kg
BTK [4] = biological target: T1, BTK (Mus musculus, UniProt P35991); assay: molecular probe assay, BTK occupancy in MDSCs from tumor bearing PDA mice; type: in vivo; details: 15 mg/kg BID, Day 8, 4 hours post dose, granulocytic and monocytic MDSC (N=5)
T1 construct: MDSCs were purified from tumor bearing PDA mice; from tissue; host or cells: granulocytic and monocytic MDSCs purified from tumour-bearing PDA mice
T1 sequence (P35991 whole entry): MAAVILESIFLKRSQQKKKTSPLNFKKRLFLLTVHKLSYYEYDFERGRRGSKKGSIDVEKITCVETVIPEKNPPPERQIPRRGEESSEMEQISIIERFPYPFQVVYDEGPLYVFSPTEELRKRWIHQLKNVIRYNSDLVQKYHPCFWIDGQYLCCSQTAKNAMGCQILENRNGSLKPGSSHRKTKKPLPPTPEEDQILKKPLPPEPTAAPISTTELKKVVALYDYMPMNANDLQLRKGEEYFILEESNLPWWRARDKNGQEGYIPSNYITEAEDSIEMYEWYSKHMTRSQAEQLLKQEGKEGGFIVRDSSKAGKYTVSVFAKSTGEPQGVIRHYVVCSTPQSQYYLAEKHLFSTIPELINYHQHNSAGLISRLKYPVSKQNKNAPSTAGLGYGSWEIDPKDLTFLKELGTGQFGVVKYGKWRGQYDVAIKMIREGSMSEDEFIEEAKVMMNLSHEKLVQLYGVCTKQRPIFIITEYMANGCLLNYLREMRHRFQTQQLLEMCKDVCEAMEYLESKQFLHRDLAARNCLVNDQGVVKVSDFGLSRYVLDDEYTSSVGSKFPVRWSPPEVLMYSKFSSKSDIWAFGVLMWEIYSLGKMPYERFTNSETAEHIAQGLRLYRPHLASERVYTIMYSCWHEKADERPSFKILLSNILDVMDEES
Source text: A molecular probe assay was used to calculate the percent irreversible occupancy of total BTK.

[5] = functional observation battery (GLP safety pharmacology); details: rats, doses through 300 mg/kg
hepatocytes = assay: in vitro metabolism in hepatocytes with 14C-labeled drug; type: in vitro ADME, mouse, rat, dog, rabbit, monkey, and human
[6] = system: human platelet-mediated thrombosis; assay: in vivo human thrombus formation in the VWF HA1 mice model; details: human platelets preincubated with BTK inhibitor, laser-induced injury
CLL [7] = assay: clinical study in CLL (ALC and SPD); type: in vivo, human; details: CLL patients, FIG. 125
Source text: J. Med. 2013, 369, 32-42.

CLL [8] = assay: clinical study of Formula (XVIII) in relapsed/refractory CLL
Source text: (§1) This study is a multicenter, open-label, nonrandomized, sequential group, dose escalation study. The following dose cohorts will be evaluated:
(§2) Each cohort will be enrolled sequentially with 6 subjects per cohort. If ≤1 dose-limiting toxicity (DLT) is observed in the cohort during Cycle 1, escalation to the next cohort will proceed. Subjects may be enrolled in the next cohort if 4 of the 6 subjects enrolled in the cohort completed Cycle 1 without experiencing a DLT, while the remaining 2 subjects are completing evaluation. If ≥2 DLTs are observed during Cycle 1, dosing at that dose and higher will be suspended and the MTD will be established as the previous cohort. […] Dose escalation will end when either the MTD is achieved or at 3 dose levels above full BTK occupancy, whichever occurs first. […] Should escalation to Cohort 6 be necessary, the dose will be determined based on the aggregate data from Cohorts 1 to 5, which includes safety, efficacy, and PK/PD results. The dose for Cohort 6 will not exceed 900 mg/day.
(§3) Dose-limiting toxicity is defined as any of the following events (if not related to disease progression): (1) any Grade ≥3 non-hematologic toxicity (except alopecia) persisting despite receipt of a single course of standard outpatient symptomatic therapy (e.g., Grade 3 diarrhea that responds to a single, therapeutic dose of Imodium® would not be considered a DLT); (2) grade ≥3 prolongation of the corrected QT interval (QTc), as determined by a central ECG laboratory overread; (3) grade 4 neutropenia (absolute neutrophil count [ANC]<500/μL) lasting >7 days after discontinuation of therapy without growth factors or lasting >5 days after discontinuation of therapy while on growth factors (i.e., Grade 4 neutropenia not lasting as long as specified will not be considered a DLT), (4) grade 4 thrombocytopenia (platelet count <20,000/μL) lasting >7 days after discontinuation of therapy or requiring transfusion (i.e., Grade 4 thrombocytopenia not lasting as long as specified will not be considered a DLT), and (5) dosing delay due to toxicity for >7 consecutive days.
(§4) The study scheme is a sequential cohort escalation. Each cohort consists of six subjects. The sample size of the study is 24 to 36 subjects, depending on dose escalation into subsequent cohorts. […] The dose level for Cohort 6 will be determined based on the safety and efficacy of Cohorts 1 to 5, and will not exceed 900 mg/day. Escalation will end with either the MTD cohort or three levels above full BTK occupancy, whichever is observed first. An additional arm of the study will explore 100 mg BID dosing.
(§5) The route of administration is oral (per os, or PO). The dose regimen is once daily or twice daily, as defined by the cohort, on an empty stomach (defined as no food 2 hours before and 30 minutes after dosing).

CCL2 [9] = assay: CCL2 levels in treated patients; type: in vivo, human; details: FIG. 146
[10] = preliminary brain PK experiments, oral gavage; type: in vivo, Sprague-Dawley rats; details: 5 or 30 mg/kg/day oral
Source text: Two vehicle treated rats were sacrificed on each sampling day for comparison.

human platelets = assay: GPVI (convulxin-induced) platelet aggregation; type: cell-based; details: CVX-induced
Experimental: GPVI platelet aggregation was measured for Formula (XVIII) and Formula (XX-A) (ibrutinib). Blood was obtained from untreated humans, and platelets were purified from […] by centrifugation. Cells were resuspended to a final concentration of 350,000/μL in buffer containing 145 mmol/L NaCl, 10 mmol/L HEPES, 0.5 mmol/L Na2HPO4, 5 mmol/L KCl, 2 mmol/L MgCl2, 1 mmol/L CaCl2), and 0.1% glucose, at pH 7.4. Stock solutions of […] were prepared on the day of experimentation and added to platelet suspensions 5 minutes (37° C., 1200 rpm) before the induction of aggregation. Aggregation was assessed with a Chronolog Lumi-Aggregometer (model 540 VS; Chronolog, Havertown, Pa.) and permitted to proceed for 6 minutes after the addition of agonist. The results are reported as maximum percent change in light transmittance from baseline with platelet buffer used as a reference.
In FIG. 123, the results of CVX-induced (250 ng/mL) human platelet aggregation results before and 15 minutes after administration of the BTK inhibitors to 6 healthy individuals are shown.

CXCL12 [11] = assay: CXCL12 levels in treated patients; type: in vivo, human; details: FIG. 145
CLL [12] = assay: apoptosis in treated CLL patients; type: in vivo, human; details: FIG. 144
CYP enzymes = assay: nonclinical CYP interaction studies; type: in vitro ADME
[13] = preliminary evaluations of metabolism in plasma, bile, and urine; type: in vivo; details: rats, dogs, and monkeys
[14] = cardiovascular function study in awake telemeterized beagle dogs; details: male beagle dogs, single doses through 30 mg/kg
EGFR = EGFR (Homo sapiens, UniProt P00533); assay: EGF-induced EGFR phosphorylation in A431 cells (phosphoflow); details: 10 μM, A431 human epidermoid cancer cell line
Chain of EGFR (P00533 25-1210): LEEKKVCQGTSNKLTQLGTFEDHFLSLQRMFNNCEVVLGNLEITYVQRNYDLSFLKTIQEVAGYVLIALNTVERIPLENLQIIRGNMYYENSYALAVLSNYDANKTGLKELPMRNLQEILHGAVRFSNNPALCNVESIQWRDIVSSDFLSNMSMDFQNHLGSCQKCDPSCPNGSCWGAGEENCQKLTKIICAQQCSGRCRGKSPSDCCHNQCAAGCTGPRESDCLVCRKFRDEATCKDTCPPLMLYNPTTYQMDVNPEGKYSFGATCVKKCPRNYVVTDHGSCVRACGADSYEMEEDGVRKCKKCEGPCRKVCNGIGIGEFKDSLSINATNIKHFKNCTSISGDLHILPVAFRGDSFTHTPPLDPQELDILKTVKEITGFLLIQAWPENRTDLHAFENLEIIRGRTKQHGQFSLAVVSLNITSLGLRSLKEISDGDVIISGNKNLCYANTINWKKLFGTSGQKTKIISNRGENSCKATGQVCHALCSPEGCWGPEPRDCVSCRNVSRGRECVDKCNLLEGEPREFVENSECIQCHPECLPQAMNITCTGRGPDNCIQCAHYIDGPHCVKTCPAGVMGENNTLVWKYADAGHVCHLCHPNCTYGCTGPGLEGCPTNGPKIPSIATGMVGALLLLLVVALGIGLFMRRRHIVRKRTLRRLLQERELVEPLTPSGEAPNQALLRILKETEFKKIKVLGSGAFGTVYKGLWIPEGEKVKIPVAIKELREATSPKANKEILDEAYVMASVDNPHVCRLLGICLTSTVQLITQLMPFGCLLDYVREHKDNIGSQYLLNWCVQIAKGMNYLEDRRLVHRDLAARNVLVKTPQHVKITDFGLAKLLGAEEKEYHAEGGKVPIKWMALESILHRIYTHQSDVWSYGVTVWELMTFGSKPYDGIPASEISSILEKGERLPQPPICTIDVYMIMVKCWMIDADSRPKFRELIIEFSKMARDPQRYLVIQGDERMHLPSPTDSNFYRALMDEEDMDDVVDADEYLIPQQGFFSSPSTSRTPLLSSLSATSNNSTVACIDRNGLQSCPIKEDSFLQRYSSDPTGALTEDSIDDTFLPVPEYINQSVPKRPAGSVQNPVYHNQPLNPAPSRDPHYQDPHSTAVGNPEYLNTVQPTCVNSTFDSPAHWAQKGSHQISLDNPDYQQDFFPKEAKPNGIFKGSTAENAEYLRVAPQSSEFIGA

CYP3A4 = CYP3A4 (Homo sapiens, UniProt P08684); assay: loss of parent drug as catalyzed by CYPs; type: in vitro ADME; details: in vitro loss of parent drug
Chain of CYP3A4 (P08684 whole entry): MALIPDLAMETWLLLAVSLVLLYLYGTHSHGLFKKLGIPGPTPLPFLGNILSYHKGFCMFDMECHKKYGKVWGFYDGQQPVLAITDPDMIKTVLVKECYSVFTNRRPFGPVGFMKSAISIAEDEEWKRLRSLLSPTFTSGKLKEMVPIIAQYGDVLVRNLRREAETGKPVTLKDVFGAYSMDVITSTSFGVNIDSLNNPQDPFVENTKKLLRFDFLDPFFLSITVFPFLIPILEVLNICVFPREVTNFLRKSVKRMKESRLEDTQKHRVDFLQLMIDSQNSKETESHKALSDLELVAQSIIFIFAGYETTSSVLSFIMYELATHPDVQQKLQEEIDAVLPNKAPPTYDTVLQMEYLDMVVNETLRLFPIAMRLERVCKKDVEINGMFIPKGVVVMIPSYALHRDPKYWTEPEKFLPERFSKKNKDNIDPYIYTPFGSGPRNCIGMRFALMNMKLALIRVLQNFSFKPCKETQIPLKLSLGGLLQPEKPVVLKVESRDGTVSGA

canine B cell lymphoma = assay: veterinary clinical trial in companion dogs with B cell lymphoma; type: in vivo
Experimental: Enrollment has completed for both arms.
Intra-subject dose escalation was allowed. Six of the 11 dogs that initiated at 2.5 or 5 mg/kg once daily were escalated and completed the study with dosages of 10 mg/kg twice daily. Among all the dose cohorts, 8 dogs had shrinkage of target lesions >20%; the best tumor responses were between 45-49% reduction in the sum of target lesions in two dogs. […] CR were defined as disappearance of all evidence of disease per evaluator judgment, and absence of new lesions. Vali, et al., Vet. Comp. Oncol. 2010, 8, 28-37.
Of these, 7 dogs had shrinkage of target lesions >20%, providing evidence of biological activity for the combination; four of these dogs achieved a PR. […] The initial reductions in the sum of target lesions continued to deepen during the course of therapy in 7 of the 10 dogs.

[15] = system: expression of activation markers CD69 and CD86; assay: in vivo potency: mice gavaged, BCR stimulated with IgM, CD69 and CD86 monitored by flow cytometry; details: gavage, 3 h post-dose, versus ibrutinib, FIG. 124
Experimental: Mice were gavaged at increasing drug concentration and sacrificed at one time point (3 h post-dose). BCR is stimulated with IgM and the expression of activation markers CD69 and CD86 are monitored by flow cytometry to determine EC50's.

CLL [16] = details: human, in vivo
Source text: as §1, §2, §3, §4, §5

[17] = glutathione binding and depletion in vitro; type: in vitro ADME
CCL2 [18] = assay: plasma chemokines in treated CLL patients; type: in vivo, human
[19] = system: 80 known pharmacologic targets such as G-protein-coupled receptors, nuclear receptors, proteases, and ion channels; assay: binding assays with 80 known pharmacologic targets; details: screened at 10 μM
[20] = system: GPVI platelet aggregation; assay: GPVI platelet aggregation studies; type: cell-based; details: FIG. 122
[21] = within the tested dose range; cited from earlier work

C=CC(=O)Nc1cccc(Nc2nc(Nc3ccc(OCCOC)cc3)ncc2F)c1 [CC-292]
EC50 (B cell receptor): 121 nM

CC#CC(=O)N1CCC[C@H]1c1nc(-c2ccc(C(=O)Nc3ccccn3)cc2)c2c(N)nccn12 [Formula (XVIII), (S)-4-(8-amino-3-(1-(but-2-ynoyl)pyrrolidin-2-yl)imidazo[1,5-a]pyrazin-1-yl)-N-(pyridin-2-yl)benzamide]
number of tumors (NSCLC (KrasLA2) tumors): fewer overall tumors | tumor volumes versus vehicle (NSCLC (KrasLA2) tumors): significant decrease | plasma CXCL12 levels (CXCL12 [1]): significant decrease | EC50 (B cell receptor; B-cell): 8.2 nM | BTK target occupancy (BTK [2]): improved BTK target occupancy | respiratory function [3]: no treatment-related adverse effects | irreversible occupancy of total BTK in MDSCs (BTK [4]): Complete BTK occupancy | neurobehavioral effects or body temperature, functional observation battery [5]: no adverse effects | unique human metabolite (hepatocytes; hepatocytes): No unique human metabolite | metabolites in hepatocytes (hepatocytes; mouse, rat, dog, rabbit, monkey, and human hepatocytes): two mono-oxidized metabolites and a glutathione conjugate | effect on human platelet-mediated thrombus formation [6]: no significant effect | absolute lymphocyte count (ALC) (CLL [7]; relative to ibrutinib (Byrd et al. 2013)): much smaller relative increase and much faster decrease | sum of the product of greatest diameters (SPD) (CLL [7]; versus ibrutinib): decreases more rapidly | PD (CLL [8]; 100 mg BID (N = 3)): 0 (0) n (%) | PR (CLL [8]; 100 mg BID (N = 3)): 3 (100) n (%) | PR + L (CLL [8]; 100 mg BID (N = 3)): 0 (0) n (%) | PD (CLL [8]; 100 mg QD (N = 8)): 0 (0) n (%) | PR (CLL [8]; 100 mg QD (N = 8)): 7 (88) n (%) | PR + L (CLL [8]; 100 mg QD (N = 8)): 0 (0) n (%) | PD (CLL [8]; 175 mg QD (N = 8)): 0 (0) n (%) | PR (CLL [8]; 175 mg QD (N = 8)): 5 (63) n (%) | PR + L (CLL [8]; 175 mg QD (N = 8)): 3 (37) n (%) | PD (CLL [8]; 250 mg QD (N = 7)): 0 (0) n (%) | PR (CLL [8]; 250 mg QD (N = 7)): 5 (71) n (%) | PR + L (CLL [8]; 250 mg QD (N = 7)): 2 (29) n (%) | PD (CLL [8]; 400 mg QD (N = 5)): 0 (0) n (%) | PR (CLL [8]; 400 mg QD (N = 5)): 2 (40) n (%) | PR + L (CLL [8]; 400 mg QD (N = 5)): 2 (40) n (%) | PD (CLL [8]; All Cohorts (N = 31)): 0 (0) n (%) | PR (CLL [8]; All Cohorts (N = 31)): 22 (71) n (%) | PR + L (CLL [8]; All Cohorts (N = 31)): 7 (23) n (%) | treatment time at which median % change in SPD achieved the same status (CLL [8]; CLL patients, present study): 7 months | Headache (treatment-related adverse event) (CLL [8]; Grade 1/2, All (N = 44)): 7 (16) n (%) | Diarrhea (treatment-related adverse event) (CLL [8]; Grade 1, All (N = 44)): 4 (9) n (%) | Increased tendency to bruise (treatment-related adverse event) (CLL [8]; Grade 1, All (N = 44)): 6 (14) n (%) | Petechiae (treatment-related adverse event) (CLL [8]; Grade 1, All (N = 44)): 3 (7) n (%) | grade of AEs observed (CLL [8]; human, in vivo): only grade 1 AEs | lymphocytosis (CLL [8]; human, in vivo): A lack of lymphocytosis | dose-limiting toxicities (DLTs) (CLL [8]; relapsed/refractory CLL): No DLTs | treatment-related serious adverse events (SAEs) (CLL [8]; relapsed/refractory CLL): No treatment-related serious adverse events | progression in patients with the 17p deletion (CLL [8]; to date): no 17p patients have progressed | CCL2 levels (CCL2 [9]): decrease | levels in the brain and CSF samples [10]: low but detectable levels | inhibition of GPVI platelet aggregation (human platelets): does not | CXCL12 levels (CXCL12 [11]): decrease | apoptosis (CLL [12]): increased apoptosis | potential for clinical drug-drug interactions via CYP enzymes (CYP enzymes): very unlikely to cause clinical drug-drug interactions | metabolic processes in plasma, bile, and urine [13]: oxidation, glutathione binding, and hydrolysis | body temperature, cardiovascular, or ECG (including QT interval) parameters [14]: no meaningful changes | inhibition of in vitro EGFR phosphorylation (EGFR): no inhibition | CYP responsible for metabolism (CYP3A4): metabolized by CYP3A4 | complete responses (CR) (canine B cell lymphoma; Arm 1: 21 dogs, Arm 2: 10 dogs): not observed | dogs with shrinkage of target lesions >20% (canine B cell lymphoma; Arm 1: 21 dogs, Arm 2: 10 dogs): 8 dogs | Median time to best response (canine B cell lymphoma; dog, in vivo): 7 days | best tumor responses, reduction in the sum of target lesions (canine B cell lymphoma; dog, in vivo): 45-49% | in vivo potency, inhibition of expression of activation markers CD69 and CD86 [15]: more potent at inhibiting expression of activation makers than ibrutinib | MTD (CLL [16]): not reached | glutathione binding and depletion [17]: binds to glutathione but does not deplete glutathione | plasma CCL2 levels (CCL2 [18]): significant decrease | activity in binding assays with 80 known pharmacologic targets [19]: significant activity only against the A3 adenosine receptor

C=CC(=O)N1CCC[C@@H](n2nc(-c3ccc(Oc4ccccc4)cc3)c3c(N)ncnc32)C1 [Formula (XX-A), reference compound]
IC50 ([20]; Platelet): 130 nM

CC#CC(=O)N1CCC[C@H]1c1nc(-c2ccc(C(=O)Nc3ccccn3)cc2)c2c(N)nccn12 [Formula XVIII]
IC50 [20]: 1150 nM

C=CC(=O)Nc1cccc(Nc2nc(Nc3ccc(OCCOC)cc3)ncc2F)c1 [Formula XXVII (CC-292), N-(3-((5-fluoro-2-((4-(2-methoxyethoxy)phenyl)amino)pyrimidin-4-yl)amino)phenyl)acrylamide, reference compound]
effect on human platelet-mediated thrombus formation [6]: effect similar to Formula (XX-A) (ibrutinib)

C=CC(=O)N1CCC[C@@H](n2nc(-c3ccc(Oc4ccccc4)cc3)c3c(N)ncnc32)C1 [ibrutinib]
EC50 (B cell receptor; B-cell): 6.1 nM | maximum tolerated dose (MTD) [21]: No maximum tolerated dose

— patent US11654143B2, “Therapeutic combinations of a BTK inhibitor, a PI3K inhibitor, a JAK-2 inhibitor, and/or a BCL-2 inhibitor” (Acerta Pharma B.V., priority 2014, dated 2023)
